Read-outs that look alike come from different tables or passages of the source.
Columns and labels:
[1] = target: T1, rat MCH 1 receptor (rMCH1R) (Rattus norvegicus, UniProt P97639); assay: 125I-MCH ligand binding assay, rMCH
T1 construct: expressed in transfected cells; host or cells: HEK 293 (membranes)
Method in brief: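 HEK293 membranes expressing rat or human MCH1R (100 µg tissue) were incubated for 90 min at 30 °C with 0.2 nM 125I-native-MCH and test compound in HEPES/MgCl2/BSA buffer with protease inhibitors, pH 7.4. Non-specific binding used 1 µM cold MCH. Filter-bound radioactivity gave IC50 by nonlinear regression.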

[2] = target: T2, human MCH 1 receptor (hMCH1R) (Homo sapiens, UniProt Q99705); assay: 125I-MCH ligand binding assay, hMCH
T2 construct: expressed in transfected cells; host or cells: HEK 293 (membranes)
T2 sequence (Q99705 whole entry): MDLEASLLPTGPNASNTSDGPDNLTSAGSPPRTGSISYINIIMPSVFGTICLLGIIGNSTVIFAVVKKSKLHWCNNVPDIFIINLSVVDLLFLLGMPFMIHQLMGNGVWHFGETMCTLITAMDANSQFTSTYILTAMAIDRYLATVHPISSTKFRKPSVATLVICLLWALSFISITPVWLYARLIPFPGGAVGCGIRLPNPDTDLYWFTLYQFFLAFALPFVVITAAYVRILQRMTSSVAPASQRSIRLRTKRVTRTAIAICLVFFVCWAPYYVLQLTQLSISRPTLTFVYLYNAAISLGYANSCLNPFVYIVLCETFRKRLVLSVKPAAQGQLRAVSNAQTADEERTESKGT
Method: Human embryonic kidney cells (293 total) expressing either human, rat, or mouse MCH receptor were harvested from 150 mm culture dishes using PBS. Spinning at 1500 rpm for 2 minutes initially pelleted cells. The resulting pellet was then homogenized in 15 mL ice cold sucrose buffer (25 mM HEPES, 0.3 M sucrose, pH 7.4) with a motorized, glass fitted, Teflon® homogenizer. The homogenate was centrifuged at 48,000×g at 4° C. for 10 minutes, resuspended in 15 mL assay buffer (25 mM HEPES, 10 mM mgCl2, 0.2% BSA, 0.1 mg/mL STI, 0.1 mg/mL Pefabloc®, 1 μM Phosphoramidon, pH 7.4) with a Tissue-Tearor® (Biospec Products) and centrifuged again at 48,000×g for 10 minutes. The pellet was homogenized for a third time in 15 mL assay buffer using the Tissue-Tearor® and again centrifuged at 48,000×g for 10 minutes. The resulting pellet was resuspended in assay buffer at a wet weight concentration of 10-20 mg/mL.
Binding assays were determined as described below using mouse, rat or human MCH 1 receptors (mMCH1R, rMCH1R, and hMCH1R, respectively) expressed in HEK 293; IC50 values were calculated.
Binding assays were performed in 96-well U-bottom plates. Membranes (100 μg tissue) were incubated at 30° C. for 90 minutes in assay buffer with various peptides in the presence of 0.2 nM ^125I native-MCH (Perkin-Elmer Life Sciences, Boston, Mass.) in 100 μL total volume. Non-specific binding was assessed in the presence of 1 μM cold native-MCH. The reaction was terminated by rapid filtration through Unfilter-96 GF/C glass fiber filter plates (FilterMate® 196 Harvester, Packard Instrument Co., Meriden, Conn.) pre-soaked in PBS/0.5% BSA, followed by three washes with 300 μL ice-cold water. Bound radioactivity was determined using a TopCount® microplate scintillation and luminescence counter (Packard Instrument Co., Meriden, Conn.). Nonlinear regression analyses of drug concentration curves were performed using GraphPad Prism® (GraphPad Software, Inc., San Diego, Calif.).

rat MCH1 receptor = rat MCH1 receptor (Rattus norvegicus, UniProt P97639); assay: rMCH FLIPR calcium mobilization assay (CHOK1-Gqi cells); type: cell-based; set-up: expressed in transfected cells; host or cells: CHOK1-Gqi
Chain of rat MCH1 receptor (P97639 whole entry): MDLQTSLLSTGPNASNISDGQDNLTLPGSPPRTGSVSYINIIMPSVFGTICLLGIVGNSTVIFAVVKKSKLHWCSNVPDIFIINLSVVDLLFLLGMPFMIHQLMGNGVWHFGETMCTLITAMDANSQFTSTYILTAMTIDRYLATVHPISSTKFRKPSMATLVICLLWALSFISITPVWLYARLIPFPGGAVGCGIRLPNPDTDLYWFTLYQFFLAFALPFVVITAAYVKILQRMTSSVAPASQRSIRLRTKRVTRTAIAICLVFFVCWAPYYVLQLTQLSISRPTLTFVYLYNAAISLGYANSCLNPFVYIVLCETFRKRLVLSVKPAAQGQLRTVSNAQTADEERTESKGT
Method: Pharmacological analyses were conducted using either a HT-PS100 device (Axiom Biotechnologies, San Diego, Calif.), which provides high-resolution dose-response fluorometric measurements of [Ca^++]i mobilization, or using a FLIPR® device (Molecular Devices, Sunnyvale, Calif.).
Materials: Pharmacological analysis was conducted using a FLIPR® device (Molecular Devices, Sunnyvale, Calif.). CHOK1-Gqi cells were stably transfected with the rat MCH1 receptor and maintained under G418 antibiotic pressure. FLIPR® assay buffer consisted of phenol red-free DMEM+2.5 mM probenecid. […]. Test compounds were prepared as 10 mM stocks in 100% DMSO and diluted to a top end working concentration of 10 μM in 96 well black, flat bottom, collagen-I coated plates (Becton Dickinson, Bedford, Mass.).
Methods: CHOK1-Gqi cells stably expressing MCH1R were maintained in Dulbeco's modified Eagle's medium (GIBCO/Life Technologies, Rockville, Md.) supplemented with 2 mM glutamine and 10% dialyzed fetal bovine serum (HyCLone, Logan, Utah) at 37° C., 5% CO2. Cells were harvested by 10′ treatment with Versene (GIBCO/Life Technologies) followed by trituration, washing twice with cold (4° C.) hybridoma medium (Serum/Protein free, with L-glutamine, sodium bicarbonate, MOPS buffer) (Sigma-Aldrich Corp, St. Louis, Mo.) and replated onto 96 well black, flat bottom, collagen-I coated plates to a density of 10,000 cells/well. The cells were then loaded with the fluorescent calcium indicator Fura-2 (Molecular Probes, Eugene, Oreg.) at 1.6 μM for 60′ at room temperature. The loaded cells were then washed twice with 90 μl/well of wash buffer (1×HBSS, 20 mM HEPES, 2.5 mM probenecid).
Receptor-stimulated intracellular calcium responses were detected using FLIPR® by monitoring increases in the Fura-2 fluorescence response.
Test compounds were screened for MCH1R activity in the FLIPR® for both agonist and antagonist action. Agonist mode challenges were conducted at a maximum gradient concentration of 1 μM. Antagonist activity was tested by 10 min pre-incubation of cells at a compound concentration of defined to be 300× the EC50 of MCH (typically 1 μM), with subsequent introduction of MCH at a concentration 5-fold of EC50 as determined in preliminary experiments. […].
Several fixed concentrations of antagonist compounds were prepared in 10-fold increments, and presented to the cells in a gradient of increasing MCH concentration. Values for compound pA2 were calculated by linear regression of MCH EC50s as a function of antagonist concentration.

human MCH receptor = target: T3, human MCH receptor (Homo sapiens, UniProt Q99705); assay: hMCH FLIPR calcium mobilization assay; type: cell-based; conditions: 100 μM or less list; read-out: Ki in the hMCH FLIPR assay
T3 construct: expressed in transfected cells
T3 sequence (Q99705 whole entry): as the sequence (Q99705 whole entry) above

[3] = HEK 293 membranes, 0.2 nM 125I native-MCH, 100 μM or less list, read-out: IC50 in the rMCH binding assay
[4] = HEK 293 membranes, 0.2 nM 125I native-MCH, 100 μM or less list, read-out: IC50 in the hMCH binding assay
[5] = CHOK1-Gqi cells, rat MCH1 receptor, 100 μM or less list, read-out: Ki in the rMCH FLIPR assay
[6] = HEK 293 membranes, 0.2 nM 125I native-MCH, 100 nM or less list, read-out: IC50 in the rMCH binding assay

T1 sequence (P97639 whole entry): as the sequence (P97639 whole entry) above

Compound | IC50 [1, 3] | IC50 [2, 4] | also measured
Cc1cccc(C)c1-n1nnnc1[C@H](c1cccc(Oc2ccccc2)c1)N1CCN(C/C=C/c2ccccc2)CC1 (racemic) [Compound 12, 1-[[1-(2,6-dimethyiphenyl)-1H-tetrazol-5-yl]-(3-phenoxyphenyl)methyl]-4-(3-phenylallyl)piperazine] | ≤ 100 µM | ≤ 100 µM | Ki (rat MCH1 receptor; [5]): ≤ 100 µM
Cc1cccc([C@@H](c2nnnn2-c2c(C)cccc2C)N2CCN(C/C=C/c3ccccc3)CC2)n1 (racemic) [Compound 71, 1-[[1-(2,6-dimethylphenyl)-1H-tetrazol-5-yl]-(6-methylpyridin-2-yl)methyl]-4-(3-phenylallyl)piperazine] | ≤ 100 µM | ≤ 100 µM | 
COC(=O)C(Cc1ccccc1)n1nnnc1[C@H](c1ccccc1)N1CCN(C/C=C/c2ccccc2)CC1 (stereo in doubt) [Compound 26, 3-phenyl-2-(5-{phenyl-[4-(3-phenylallyl)piperazin-1-yl]methyl}tetrazol-1-yl)propionic acid methyl ester] | ≤ 100 µM | ≤ 100 µM | 
COC(=O)C(Cc1c[nH]c2ccccc12)n1nnnc1[C@H](c1ccccc1)N1CCN(C/C=C/c2ccccc2)CC1 (stereo in doubt) [Compound 31, 3-(1H-indol-3-yl)-2-(5-{phenyl-[4-(3-phenylallyl)piperazin-1-yl]methyl}tetrazol-1-yl)propionic acid methyl ester] | ≤ 100 µM | ≤ 100 µM | 
C(=C\c1ccccc1)/CN1CCN([C@@H](c2ccccc2)c2nnnn2CC2CCCO2)CC1 (stereo in doubt) [Compound 33, 1-(3-phenylallyl)-4-{phenyl-[1-(tetrahydrofuran-2-ylmethyl)-1H-tetrazol-5-yl]methyl}piperazine] | ≤ 100 µM | ≤ 100 µM | 
CN1CCCC1CCn1nnnc1[C@H](c1ccccc1)N1CCN(C/C=C/c2ccccc2)CC1 (stereo in doubt) [Compound 37, 1-({1-[2-(1-methyl-pyrrolidin-2-yl)ethyl]-1H-tetrazol-5-yl}phenylmethyl)-4-(3-phenylallyl)piperazine] | ≤ 100 µM | ≤ 100 µM | 
Cc1cccc(C)c1-n1nnnc1C(c1ccc(-c2ccccc2)cc1)N1CCN(C/C=C/c2ccccc2)CC1 (stereo not shown) [Compound 11, 1-{biphenyl-4-yl-[1-(2,6-dimethyiphenyl)-1H-tetrazol-5-yl]methyl}-4-(3-phenylallyl)piperazine] | ≤ 100 µM | ≤ 100 µM | IC50 [1, 6]: ≤ 0.1 µM; Ki (rat MCH1 receptor; CHOK1-Gqi cells, rat MCH1 receptor, 100 nM or less list, read-out: Ki in the rMCH FLIPR assay): ≤ 0.1 µM; Ki (rat MCH1 receptor; [5]): ≤ 100 µM
Cc1cccc(C)c1-n1nnnc1C1(N2CCN(C/C=C/c3ccccc3)CC2)CCCCC1 [Compound 92, 1-{1-[1-(2,6-dimethylphenyl)-1H-tetrazol-5-yl]cyclohexyl)-4-(3-phenylallyl)piperazine] |  |  | IC50 [1]: ≤ 100 µM; IC50 [2]: ≤ 100 µM; Ki (rat MCH1 receptor): ≤ 100 µM

Further lines, with some results ahead:

IC50 [1, 3] | IC50 [2, 4] | Compound | also measured
≤ 100 µM | ≤ 100 µM | Cc1cccc(C)c1-n1nnnc1[C@H](c1cccc(Oc2ccc(Cl)c(Cl)c2)c1)N1CCN(C/C=C/c2ccccc2)CC1 (racemic) [Compound 72, 1-{[3-(3,4-dichlorophenoxy)phenyl]-[1-(2,6-dimethylphenyl)-1H-tetrazol-5-yl]methyl}-4-(3-phenylallyl) piperazine] | 
≤ 100 µM | ≤ 100 µM | Cc1ccc(Oc2cccc([C@@H](c3nnnn3-c3c(C)cccc3C)N3CCN(C/C=C/c4ccccc4)CC3)c2)cc1 (racemic) [Compound 73, 1-[[1-(2,6-dimethylphenyl)-1H-tetrazol-5-yl]-(3-p-tolyloxyphenyl)methyl]-4-(3-phenylallyl)piperazine] | 
≤ 100 µM | ≤ 100 µM | Cc1cccc(C)c1-n1nnnc1[C@H](c1cccnc1)N1CCN(C/C=C/c2ccccc2)CC1 (racemic) [Compound 74, 1-{[1-(2,6-dimethylphenyl)-1H-tetrazol-5-yl]pyridin-3-ylmethyl}-4-(3-phenylallyl)piperazine] | 
≤ 100 µM | ≤ 100 µM | Cc1cccc(C)c1-n1nnnc1[C@H](c1ccccc1C#N)N1CCN(C/C=C/c2ccccc2)CC1 (racemic) [Compound 80, 2-{[1-(2,6-dimethylphenyl)-1H-tetrazol-5-yl]-[4-(3-phenylallyl)piperazin-1-yl]methyl}benzonitrile] | 
≤ 100 µM | ≤ 100 µM | Cc1cccc(C)c1-n1nnnc1[C@H](c1cccc2c1OCO2)N1CCN(C/C=C/c2ccccc2)CC1 (racemic) [Compound 81, 1-{benzo[1,3]diaxol-4-yl-[1-(2,6-dimethylphenyl)-1H-tetrazol-5-yl]methyl}-4-(3-phenylallyl)piperazine] | 
 | ≤ 100 µM | Cc1cccc(C)c1-n1nnnc1[C@H](c1ccncc1)N1CCN(C/C=C/c2ccccc2)CC1 (racemic) [Compound 86, 1-{[1-(2,6-dimethylphenyl)-1H-tetrazol-5-yl]pyridin-4-ylmethyl}-4-(3-phenylallyl)piperazine] | Ki (human MCH receptor): ≤ 100 µM; Ki (rat MCH1 receptor; [5]): ≤ 100 µM
≤ 100 µM | ≤ 100 µM | FC(F)(F)c1cccc([C@@H](c2nnnn2-c2c(Cl)cccc2Cl)N2CCN(C/C=C/c3ccccc3)CC2)c1 (racemic) [Compound 164, 1-[[1-(2,6-dichlorophenyl)-1H-tetrazol-5-yl]-(3-trifluoromethylphenyl)methyl]-4-(3-phenylallyl)piperazine] | 
≤ 100 µM | ≤ 100 µM | Cc1cccc(C)c1-n1nnnc1[C@H](c1cccc(C(F)(F)F)c1)N1CCN(C/C=C/c2ccccc2)CC1 (stereo in doubt) [Compound 142, 1-[[1-(2,6-dimethylphenyl)-1H-tetrazol-5-yl]-(3-trifluoromethylphenyl)methyl]-4-(3-phenylallyl)piperazine] | IC50 [1, 6]: ≤ 0.1 µM; IC50 ([2]; HEK 293 membranes, 0.2 nM 125I native-MCH, 100 nM or less list, read-out: IC50 in the hMCH binding assay): ≤ 0.1 µM
